Measured values: patent publication US20180230166A1 (Merck Sharp & Dohme Corp., priority 2015, published 2018)

Target: T1, endogenous CETP from serum (Homo sapiens, UniProt P11597)
T1 construct: yielding a concentration of approximately 15 nM endogenous CETP in the assay; from tissue; host or cells: human serum (95% of the assay volume)
T1 sequence (P11597 18-493): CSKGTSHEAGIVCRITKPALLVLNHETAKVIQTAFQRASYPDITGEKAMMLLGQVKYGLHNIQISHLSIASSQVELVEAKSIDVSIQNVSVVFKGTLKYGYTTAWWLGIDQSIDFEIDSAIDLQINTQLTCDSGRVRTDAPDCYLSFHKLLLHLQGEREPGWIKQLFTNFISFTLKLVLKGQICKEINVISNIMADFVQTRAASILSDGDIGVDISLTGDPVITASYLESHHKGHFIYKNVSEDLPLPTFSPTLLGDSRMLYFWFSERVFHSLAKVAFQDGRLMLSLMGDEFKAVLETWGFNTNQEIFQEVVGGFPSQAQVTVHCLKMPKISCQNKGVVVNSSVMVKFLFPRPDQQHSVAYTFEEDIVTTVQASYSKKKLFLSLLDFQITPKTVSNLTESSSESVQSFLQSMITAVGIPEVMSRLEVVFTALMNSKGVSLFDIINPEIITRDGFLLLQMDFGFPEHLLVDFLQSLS
Experiment: RTA assay in 95% human serum (95% RTA), CETP-catalyzed CE and TG transfer
Format: biochemical
Conditions: 95% human serum, endogenous CETP; read-out: RTA (95% HS)
Description: Reagents and sources are: [3H] cholesteryl oleate (GE #TRK.886), [3H] Triolein (Perkin-Elmer NET-431), Butylated hydroxyl toluene (Aldrich, #D4740-4), DOPC (Sigma, #P6354), Sodium Bromide (Fisher scientific #S255-500), PEG 8000 (Fisher, #BP233-1), and human HDL (Intracel Corp #RP-036).
Both assays measure the transfer of [3H] cholesteryl oleate or [3H] triolein from exogenous LDL to HDL.
Radiolabeled donor particles are generated by first combining 100 μl of 200 μM butylated hydroxyl toluene in CHCl3, 216 μL of 21.57 mM DOPC in EtOH, and either 500 μCi [3H]-triolein (Perkin Elmer #NET-431) or 500 μCi [3H]-cholesteryl oleate (GE #TRK886) in a glass tube. Reagents are mixed, dried under nitrogen, and then resuspended in 2 mL of 50 mM Tris, 27 μM EDTA at pH 7.4. After a brief vortex, the solution is sonicated until clear and mixed with 20 mL of fresh human serum. The mixture is incubated overnight at 37° C. The [3H] labeled LDL substrate is separated at 1.063 g/ml density by sequential ultracentrifugal flotation in NaBr according to the method of Havel, Eder, et al., 1955, and Chapman, Goldstein, et al., 1981. Once isolated the particles are dialyzed 3× in CETP buffer (50 mM Tris, pH 7.4, 100 mM NaCl, 1 mM EDTA). Human HDL is purchased from Intracel and used as the acceptor particles.
Transfer assays are performed in a 96-well v-bottom polypropylene plate. […] 1 μL of each test compound diluted in DMSO is added to 47 μL of assay cocktail per well and incubated at 37° C. for 1 hour. To initiate the transfer reaction, 2 μL radiolabeled LDL is added. After an additional 60 min of incubation at 37° C., the transfer action is terminated by precipitation of LDL with an equal volume of 20% W/V PEG 8000. The plates are centrifuged at 2000 rpm for 30 minutes at 4° C. A 40 μL aliquot of the HDL-containing supernatant is transferred to a Packard Optiplate™ with 200 μL of MicroScint™ 20. After mixing, plates are counted by liquid scintillation. Counts present in the supernatant for blanks (wells containing only HDL acceptor, CETP buffer and DMSO) are subtracted from those containing test compounds and used to correct for non-specific transfer.
For the transfer assay using endogenous CETP from serum (95% RTA), the same procedure is used except that human serum is added such that a final concentration of serum of 95% of the total assay volume is achieved, yielding a concentration of approximately 15 nM endogenous CETP in the assay. This is then combined with HDL and CETP buffer and the reaction proceeds as above and is terminated as described.
Comparison of the counts of samples with inhibitors to an uninhibited (DMSO only) positive control yield a percent inhibition. A plot of percent inhibition vs. log of inhibitor concentration, fit to a Sigmoidal 4 parameter equation is used to calculate IC50.
Starting materials are commercially available or are made using known procedures or as shown below. The examples may be synthesized using the general schemes provided below. The data reported for the examples below were obtained using the RTA assay in 95% human serum. […] When compounds of Formula I are mentioned herein, such compounds include compounds defined generically by Formula I and also the specific examples disclosed herein.

Molecule COc1ccc(-c2ccc(C(=O)O)cc2C)cc1-c1ccc(C(F)(F)F)cc1[C@@H]1CC[C@H]2[C@@H](c3cc(C(F)(F)F)cc(C(F)(F)F)c3)CC(=O)N12 [Example 2, 2″-((3S,7R,7aS)-7-(3,5-bis(trifluoromethyl)phenyl)-5-oxohexahydro-1H-pyrrolizin-3-yl)-4′-methoxy-2-methyl-4″-(trifluoromethyl)-[1,1′:3′,1″-terphenyl]-4-carboxylic acid] has an IC50 of 1830 nM.

Same assay, conditions: RTA assay in 95% human serum; read-out: IC50

In order of falling IC50:
1. COc1ccc(-c2ccc(C(=O)O)cc2C)cc1-c1ccc(C(F)(F)F)cc1[C@@H]1CC[C@H]2[C@@H](c3cc(F)cc(C(F)(F)F)c3)CC(=O)N12 [Example 20]  4730 nM
2. COc1ncc(-c2ccc(C(=O)O)cc2C)cc1-c1ccc(C(F)(F)F)cc1[C@@H]1CC[C@H]2[C@@H](c3ccnc(C(F)(F)F)c3)SC(=O)N12 [Example 10, 4-{6-methoxy-5-[2-{(1R,5S,7aS)-3-oxo-1-[2-(trifluoromethyl)pyridin-4-yl]tetrahydro-1H-pyrrolo[1,2-c][1,3]thiazol-5-yl}-4-(trifluoromethyl)phenyl]pyridin-3-yl}-3-methylbenzoic acid]  3940 nM
3. COc1ncc(-c2ccc(C(=O)O)cc2C)cc1-c1ccc(C(F)(F)F)cc1[C@@H]1CC[C@H]2[C@@H](c3cc(C(F)(F)F)cc(C(F)(F)F)c3)CC(=O)N12 [Example 16, 4-{5-[2-{(3S,7R,7aS)-7-[3,5-bis(trifluoromethyl)phenyl]-5-oxohexahydro-1H-pyrrolizin-3-yl}-4-(trifluoromethyl)phenyl]-6-methoxypyridin-3-yl}-3-methylbenzoic acid]  2940 nM
4. COc1ncc(-c2ccc(C(=O)O)cc2C)cc1-c1ccc(C(F)(F)F)cc1[C@@H]1CC[C@H]2[C@@H](c3cc(F)cc(C(F)(F)F)c3)CC(=O)N12 [Example 19, 4-{5-[2-{(3S,7R,7aS)-7-[3-fluoro-5-(trifluoromethyl)phenyl]-5-oxohexahydro-1H-pyrrolizin-3-yl}-4-(trifluoromethyl)phenyl]-6-methoxypyridin-3-yl}-3-methylbenzoic acid]  2880 nM
5. COc1cc(F)c(C(C)C)cc1-c1ccc(C(F)(F)F)cc1[C@@H]1CC[C@H]2[C@@H](c3cc(F)cc(C(F)(F)F)c3)CC(=O)N12 [Example 18, (1R,5S,7aS)-5-[4′-fluoro-2′-methoxy-5′-(1-methylethyl)-4-(trifluoromethyl)biphenyl-2-yl]-1-[3-fluoro-5-(trifluoromethyl)phenyl]hexahydro-3H-pyrrolizin-3-one]  2690 nM
6. COc1cc(F)c(C(C)C)cc1-c1ccc(C(F)(F)F)cc1[C@@H]1CC[C@H]2[C@@H](c3ccnc(C(F)(F)F)c3)SC(=O)N12 [Example 11, (1R,5S,7aS)-5-[4′-fluoro-2′-methoxy-5′-(1-methylethyl)-4-(trifluoromethyl)biphenyl-2-yl]-1-[2-(trifluoromethyl)pyridin-4-yl]tetrahydro-1H-pyrrolo[1,2-c][1,3]thiazol-3-one]  2520 nM
7. COc1ccc(-c2ccc(C(=O)O)cc2C)cc1-c1ccc(C(F)(F)F)cc1[C@@H]1CC[C@H]2[C@@H](c3ccnc(C(F)(F)F)c3)SC(=O)N12 [Example 9, 4′-methoxy-2-methyl-2″-{(1R,5S,7aS)-3-oxo-1-[2-(trifluoromethyl)pyridin-4-yl]tetrahydro-1H-pyrrolo[1,2-c][1,3]thiazol-5-yl}-4″-(trifluoromethyl)-1,1′:3′,1″-terphenyl-4-carboxylic acid]  1990 nM
8. COc1ccc([C@H]2CC[C@H](C(=O)O)CC2)cc1-c1ccc(C(F)(F)F)cc1[C@@H]1CC[C@H]2[C@@H](c3cc(F)cc(C(F)(F)F)c3)SC(=O)N12 [Example 12, trans-4-[2′-{(1R,5S,7aS)-1-[3-fluoro-5-(trifluoromethyl)phenyl]-3-oxotetrahydro-1H-pyrrolo[1,2-c][1,3]thiazol-5-yl}-6-methoxy-4′-(trifluoromethyl)biphenyl-3-yl]cyclohexanecarboxylic acid]  1500 nM
9. COc1ccc(-c2ccc(C(=O)O)cc2C)cc1-c1ccc(C(F)(F)F)cc1[C@@H]1CC[C@H]2[C@@H](c3cc(F)cc(C(F)(F)F)c3)SC(=O)N12 [Example 6, 2″-{(1R,5S,7aS)-1-[3-flluoro-5-(trifluoromethyl)phenyl]-3-oxotetrahydro-1H-pyrrolo[1,2-c][1,3]thiazol-5-yl}-4′-methoxy-2-methyl-4″-(trifluoromethyl)-1,1′:3′,1″-terphenyl-4-carboxylic acid]  926 nM
10. COc1ncc(-c2ccc(C(=O)O)cc2C)cc1-c1ccc(C(F)(F)F)cc1[C@@H]1CC[C@H]2[C@@H](c3cc(C(F)(F)F)cc(C(F)(F)F)c3)SC(=O)N12 [Example 4, 4-{5-[2-{(1R,5S,7aS)-1-[3,5-bis(trifluoromethyl)phenyl]-3-oxotetrahydro-1H-pyrrolo[1,2-c][1,3]thiazol-5-yl}-4-(trifluoromethyl)phenyl]-6-methoxypyridin-3-yl}-3-methylbenzoic acid]  559 nM
11. COc1ncc(-c2c(C)cc(C(=O)O)cc2C)cc1-c1ccc(C(F)(F)F)cc1[C@@H]1CC[C@H]2[C@@H](c3cc(C(F)(F)F)cc(C(F)(F)F)c3)CC(=O)N12 [Example 14, 4-{5-[2-{(3S,7R,7aS)-7-[3,5-bis(trifluoromethyl)phenyl]-5-oxohexahydro-1H-pyrrolizin-3-yl}-4-(trifluoromethyl)phenyl]-6-methoxypyridin-3-yl}-3,5-dimethylbenzoic acid]  321 nM
12. COc1ncc(-c2ccc(C(=O)O)cc2C)cc1-c1ccc(C(F)(F)F)cc1[C@@H]1CC[C@H]2[C@@H](c3cc(F)cc(C(F)(F)F)c3)SC(=O)N12 [Example 5, 4-{5-[2-{(1R,5S,7aS)-1-[3-fluoro-5-(trifluoromethyl)phenyl]-3-oxotetrahydro-1H-pyrrolo[1,2-c][1,3]thiazol-5-yl}-4-(trifluoromethyl)phenyl]-6-methoxypyridin-3-yl}-3-methylbenzoic acid]  285 nM
13. COc1ncc(-c2c(C)cc(C(=O)O)cc2C)cc1-c1ccc(C(F)(F)F)cc1[C@@H]1CC[C@H]2[C@@H](c3cc(C(F)(F)F)cc(C(F)(F)F)c3)SC(=O)N12 [Example 3, 4-{5-[2-{(1R,5S,7aS)-1-[3,5-bis(trifluoromethyl)phenyl]-3-oxotetrahydro-1H-pyrrolo[1,2-c][1,3]thiazol-5-yl}-4-(trifluoromethyl)phenyl]-6-methoxypyridin-3-yl}-3,5-dimethylbenzoic acid]  164 nM
14. COc1ncc(-c2c(C)cc(C(=O)O)cc2C)cc1-c1ccc(C(F)(F)F)cc1[C@@H]1CC[C@H]2[C@@H](c3ccnc(C(F)(F)F)c3)SC(=O)N12 [Example 8, 4-{6-methoxy-5-[2-{(1R,5S,7aS)-3-oxo-1-[2-(trifluoromethyl)pyridin-4-yl]tetrahydro-1H-pyrrolo[1,2-c][1,3]thiazol-5-yl}-4-(trifluoromethyl)phenyl]pyridin-3-yl}-3,5-dimethylbenzoic acid]  143 nM
